Test results reported in ChEMBL document CHEMBL3885861, “Open TG-GATES”.

Organism: Rattus norvegicus
Assay: Open TG-GATES - Regimen: Single
Assay type: toxicity, organism-based, Sprague-Dawley
Design: regimen Single, gender Male, age 6 weeks
Conditions: in vivo, po, 0 mg/kg, route gavage, dose level Control; for APTT / Bas / Eos / Fbg / Hb / Ht / Lym / MCH / MCHC / MCV / Mono / Neu / PT / Plat / RBC / Ret / WBC: tissue Blood; for KIDNEY_L / KIDNEY_R / KIDNEY_TOTAL: tissue Kidney; for LIVER: tissue Liver; for A/G / ALP / ALT / AST / BUN / CRE / Ca / Cl / DBIL / GLC / IP / K / LDH / Na / PL / RALB / TBIL / TC / TG / TP / gamma-GTP: tissue Plasma

## CN(C)CCC=C1c2ccccc2CCc2ccccc21 [AMITRIPTYLINE]
3 h
  TERMINAL_BW: 194 g
  APTT: 16.6 s
  Bas: 0%
  Eos: 0.8%
  Fbg: 235.6 mg/dL
  Hb: 12.8 g/dL
  Ht: 39.8%
  Lym: 77.6%
  MCH: 20.9 pg
  MCHC: 32.3%
  MCV: 64.6 fL
  Mono: 3.4%
  Neu: 17.2%
  PT: 16.2 s
  Plat: 103.9 x10_4/uL
  RBC: 616.6 x10_4/ul
  Ret: 9.3%
  WBC: 90.6 x10_2/uL
  KIDNEY_L: 0.9 g
  KIDNEY_R: 0.9 g
  KIDNEY_TOTAL: 1.7 g
  LIVER: 8.2 g
  A/G: 0.8
  ALP: 1452 IU/L
  ALT: 48.2 IU/L
  AST: 80.8 IU/L
  BUN: 8.8 mg/dL
  CRE: 0.2 mg/dL
  Ca: 10.7 mg/dL
  Cl: 106 meq/L
  DBIL: 0.01 mg/dL
  GLC: 183.6 mg/dL
  IP: 9.2 mg/dL
  K: 4.1 meq/L
  LDH: 66.2 IU/L
  Na: 143 meq/L
  PL: 124.4 mg/dL
  RALB: 2.4 g/dL
  TBIL: 0.062 mg/dL
  TC: 67.6 mg/dL
  TG: 44.4 mg/dL
  TP: 5.3 g/dL
  gamma-GTP: 1 IU/L
6 h
  TERMINAL_BW: 193.8 g
  APTT: 17 s
  Bas: 0%
  Eos: 0.8%
  Fbg: 256.2 mg/dL
  Hb: 12.7 g/dL
  Ht: 38.9%
  Lym: 72.6%
  MCH: 20.6 pg
  MCHC: 32.6%
  MCV: 63.3 fL
  Mono: 2.4%
  Neu: 23.2%
  PT: 15.8 s
  Plat: 119.8 x10_4/uL
  RBC: 615.8 x10_4/ul
  Ret: 8.9%
  WBC: 66 x10_2/uL
  KIDNEY_L: 0.9 g
  KIDNEY_R: 0.8 g
  KIDNEY_TOTAL: 1.7 g
  LIVER: 8.2 g
  A/G: 0.9
  ALP: 1334.2 IU/L
  ALT: 44.6 IU/L
  AST: 74.4 IU/L
  BUN: 8.6 mg/dL
  CRE: 0.1 mg/dL
  Ca: 10.7 mg/dL
  Cl: 105.8 meq/L
  DBIL: 0.008 mg/dL
  GLC: 173.6 mg/dL
  IP: 9.8 mg/dL
  K: 4.2 meq/L
  LDH: 62 IU/L
  Na: 142.6 meq/L
  PL: 142.6 mg/dL
  RALB: 2.5 g/dL
  TBIL: 0.06 mg/dL
  TC: 78.4 mg/dL
  TG: 67 mg/dL
  TP: 5.4 g/dL
  gamma-GTP: 1 IU/L
9 h
  TERMINAL_BW: 191.9 g
  APTT: 16 s
  Bas: 0%
  Eos: 1%
  Fbg: 295.6 mg/dL
  Hb: 12.8 g/dL
  Ht: 39.1%
  Lym: 77.6%
  MCH: 20.9 pg
  MCHC: 32.8%
  MCV: 63.9 fL
  Mono: 2.4%
  Neu: 18.6%
  PT: 15.2 s
  Plat: 119.1 x10_4/uL
  RBC: 611.8 x10_4/ul
  Ret: 8.5%
  WBC: 71.6 x10_2/uL
  KIDNEY_L: 0.9 g
  KIDNEY_R: 0.9 g
  KIDNEY_TOTAL: 1.7 g
  LIVER: 7.8 g
  A/G: 0.8
  ALP: 1549.8 IU/L
  ALT: 40.8 IU/L
  AST: 71.4 IU/L
  BUN: 8.8 mg/dL
  CRE: 0.2 mg/dL
  Ca: 10.7 mg/dL
  Cl: 106.6 meq/L
  DBIL: 0.01 mg/dL
  GLC: 174.8 mg/dL
  IP: 10 mg/dL
  K: 4 meq/L
  LDH: 60.4 IU/L
  Na: 142.6 meq/L
  PL: 140.4 mg/dL
  RALB: 2.5 g/dL
  TBIL: 0.06 mg/dL
  TC: 79.4 mg/dL
  TG: 44 mg/dL
  TP: 5.4 g/dL
  gamma-GTP: 1 IU/L
24 h
  TERMINAL_BW: 208.1 g
  APTT: 16.3 s
  Bas: 0.4%
  Eos: 1%
  Fbg: 266 mg/dL
  Hb: 12.5 g/dL
  Ht: 38.5%
  Lym: 77.8%
  MCH: 21.2 pg
  MCHC: 32.4%
  MCV: 65.5 fL
  Mono: 3.2%
  Neu: 17%
  PT: 16.3 s
  Plat: 110 x10_4/uL
  RBC: 589.4 x10_4/ul
  Ret: 9.5%
  WBC: 101.9 x10_2/uL
  KIDNEY_L: 0.9 g
  KIDNEY_R: 0.9 g
  KIDNEY_TOTAL: 1.8 g
  LIVER: 9.6 g
  A/G: 0.8
  ALP: 1573.8 IU/L
  ALT: 48.2 IU/L
  AST: 77.4 IU/L
  BUN: 15.4 mg/dL
  CRE: 0.2 mg/dL
  Ca: 11.1 mg/dL
  Cl: 105 meq/L
  DBIL: 0.016 mg/dL
  GLC: 186.4 mg/dL
  IP: 8.2 mg/dL
  K: 4 meq/L
  LDH: 90.2 IU/L
  Na: 143.2 meq/L
  PL: 153.8 mg/dL
  RALB: 2.6 g/dL
  TBIL: 0.054 mg/dL
  TC: 79.4 mg/dL
  TG: 97.4 mg/dL
  TP: 5.6 g/dL
  gamma-GTP: 0.6 IU/L
